Data from patent US4970214A, “Quinoline substituted oxomethyl or thioxomethyl glycine derivatives and aldose reductase inhibition therewith” (Nippon Shinyaku Co., Ltd., priority 1986, dated 1990).

Columns and labels:
aldose reductase [1] = biological target: T1, aldose reductase (Bos taurus, UniProt P16116); test: Activity of aldose reductase, in vitro; type: biochemical; settings: aldose reductase from crystal eye of cow
T1 construct: The aldose reductase used was that obtained from crystal eye of cow; from tissue; host or cells: cow eye lens
Excerpt: The aldose reductase used was that obtained from crystal eye of cow and the measurement was done in vitro.

[2] = test system: Accumulation of Galactitol in sciatic nerve; test: Accumulation of galactitol in sciatic nerve after single oral galactose; type: in vivo, rat (Sprague-Dawley); settings: 4 hours prior to 5 g/kg galactose, rats sacrificed after 3 hours
Protocol: (B) Male rats of Sprague-Dawley strain (body weight: 150 to 200 g) were fasted overnight and used in the test (one group comprised 4 rats). To all groups were given 5 g/kg of galactose orally, then the rats were sacrificed after 3 hours, and sciatic nerve was taken out and weighed. The content of galactitol in the sciatic nerve was measured by high performance liquid chromatography in accordance with a method by Jean-Marie Dethy (Anal. Biochem. 143, 119, 1984). The test compound was given orally 4 hours prior to the administration of galactose. To the control group was given 0.5% methylcellulose.

[3] = test system: amounts of inositol and galactitol in the sciatic nerve; test: Inositol and galactitol in sciatic nerve of rats fed 20% galactose diet for 4 days; type: in vivo, rat (Sprague-Dawley); settings: 9 a.m. and 5 p.m., rat sciatic nerve
Protocol: (C) Non-fasted male rats of Sprague-Dawley strain (5 rats in one group) of 150-220 g body weight were used. To all groups was administered 20% galactose diet (a mixture of galactose and F-2 which is a product of Funahashi Farm) and fed for 4 days. The test compound was given orally at 9 a.m. and 5 p.m. from the first to the fourth day. On the fifth day, the rats were sacrificed, sciatic nerve was taken out, and the amounts of inositol and galactitol in the sciatic nerve were measured by the method as given before.

Male mice of ddY strain = test: Acute toxicity, oral, rate of death and general symptoms; type: in vivo; settings: for rate of death: two weeks
Excerpt: Male mice of ddY strain (5 weeks of age) were used (one group comprised 4 to 5 mice).

aldose reductase [4] = test: Aldose reductase inhibiting action (statement in words, test not described)

Row | Structure (SMILES) | IC50 (aldose reductase [1]) [µM] | Inhibition rate (%) against Accumulation of Galactitol in sciatic nerve ([2]; 20 mg/kg oral) [%] | Inhibition rate (%) against Accumulation of Galactitol in sciatic nerve ([2]; 50 mg/kg oral) [%] | Inhibition Rate (%) ([3]; 10 mg/kg oral) | Inhibition Rate (%) ([3]; 20 mg/kg oral) | rate of death (Male mice of ddY strain; 1000 mg/kg oral) | Inhibition rate (%) against Accumulation of Galactitol in sciatic nerve ([2]; 100 mg/kg oral) [%] | case of death (Male mice of ddY strain; 3 g/kg oral) | Inhibition rate (%) against Accumulation of Galactitol in sciatic nerve ([2]; 10 mg/kg oral) [%] | Inhibition Rate (%) ([3]; 5 mg/kg oral) | rate of death (Male mice of ddY strain; 500 mg/kg oral) | aldose reductase inhibiting action (aldose reductase [4])
1 | CN(CC(=O)OCCO)C(=S)c1cc(-c2ccccc2F)nc2cc(F)ccc12 [Compound 3] | > 8.7 | 32.68 | 70.78 | 26 | 37 | 0/4 | – | – | – | – | – | –
2 | CN(CC(=O)OCCO)C(=S)c1cc(-c2ccccc2)nc2ccccc12 [Compound 1, β-Hydroxyethyl ester of N-[(2-phenylquinolin-4-yl)thioxomethyl]-N-methylglycine] | > 8.7 | 54.88 | 84.57 | 45 | 67 | 0/4 | 92.57 | no case of death | – | – | – | –
3 | Cc1cc(C(=S)N(C)CC(=O)OCCO)c2cccc(C(F)(F)F)c2n1 [Compound 2, β-Hydroxyethyl ester of N-[(2-methyl-8-trifluoromethylquinolin-4-yl)thioxomethyl]-N-methylglycine] | > 8.7 | 91.28 | 98.19 | 46 | 77 | – | – | – | 45.37 | 27 | – | –
4 | COc1ccc2c(C(=S)N(C)CC(=O)O)cccc2c1C(F)(F)F [Tolrestat, reference compound] | – | 28.26 | 68.00 | 86 | 96 | 3/4 | 95.43 | – | 21.01 | 34 | 2/4 | –
5 | O=C(O)CNC(=O)c1cc(-c2ccccc2)nc2ccccc12 [[(2-phenylquinolin-4-yl)carbonyl]glycine] | – | – | – | – | – | – | – | – | – | – | – | does not exhibit the aldose reductase inhibiting action
6 | CCc1cc(C(=S)N(C)CC(=O)OCCO)c2cccc(C(F)(F)F)c2n1 [Compound 5, β-Hydroxyethyl ester of N-[(2-ethyl-8-trifluoromethylquinolin-4-yl)thioxomethyl]-N-methylglycine] | – | 13.98 | 79.66 | – | – | 0/4 | – | – | – | – | – | –
